The NIST ThermoML archive (doi:10.1016/j.jct.2008.08.010)
Numbers after ± are expanded uncertainties.

Experiments:
[1] = 101.33 kPa, Liquid, Vibrating tube method
[2] = refractive index (Na D-line) (dimensionless); conditions: 101.33 kPa, Liquid, Standard Abbe refractometry

Structure (SMILES)	mass density ([1]; 298.2 K) [kg/m3]	mass density ([1]; 299.2 K) [kg/m3]	mass density ([1]; 300.2 K) [kg/m3]	mass density ([1]; 301.2 K) [kg/m3]	mass density ([1]; 302.2 K) [kg/m3]	mass density ([1]; 303.2 K) [kg/m3]	mass density ([1]; 304.2 K) [kg/m3]	mass density ([1]; 305.2 K) [kg/m3]	mass density ([1]; 306.2 K) [kg/m3]	mass density ([1]; 307.2 K) [kg/m3]	mass density ([1]; 308.2 K) [kg/m3]	mass density ([1]; 313.2 K) [kg/m3]	mass density ([1]; 318.2 K) [kg/m3]	mass density ([1]; 323.2 K) [kg/m3]	mass density ([1]; 333.2 K) [kg/m3]	mass density ([1]; 343.2 K) [kg/m3]	mass density ([1]; 353.2 K) [kg/m3]	refractive index ([2]; 298.2 K)	refractive index ([2]; 299.2 K)	refractive index ([2]; 300.2 K)	also measured
CCCCn1cc[n+](C)c1.F[P-](F)(F)(F)(F)F [1-butyl-3-methylimidazolium hexafluorophosphate]	1363.9 ± 0.9	1363.2 ± 0.9	1362.4 ± 0.9	1361.6 ± 0.9	1360.8 ± 0.9	1360.1 ± 0.9	1359.3 ± 0.9	1358.5 ± 0.9	1357.8 ± 0.9	1357 ± 0.9	1356.2 ± 0.9	1352.8 ± 0.9	1348.8 ± 0.9	1344.9 ± 0.9	1336.9 ± 0.9	1329 ± 0.9	1321.1 ± 0.9	1.4095 ± 0.0007	1.4093 ± 0.0007	1.4091 ± 0.0007	refractive index ([2]; 301.2 K): 1.4089 ± 0.0007; refractive index ([2]; 302.2 K): 1.4087 ± 0.0007; refractive index ([2]; 303.2 K): 1.4085 ± 0.0007; refractive index ([2]; 304.2 K): 1.4083 ± 0.0007; refractive index ([2]; 305.2 K): 1.4081 ± 0.0007; refractive index ([2]; 306.2 K): 1.4079 ± 0.0007; refractive index ([2]; 307.2 K): 1.4077 ± 0.0007; refractive index ([2]; 308.2 K): 1.4075 ± 0.0007
CCCCn1cc[n+](C)c1.COS(=O)(=O)[O-] [1-butyl-3-methylimidazolium methyl sulfate]	1205.7 ± 1.4	1205 ± 1.4	1204.4 ± 1.4	1203.8 ± 1.4	1203.1 ± 1.4	1202.5 ± 1.4	1201.9 ± 1.4	1201.2 ± 1.4	1200.6 ± 1.4	1199.9 ± 1.4	1199.3 ± 1.4	1196.2 ± 1.4	1193 ± 1.4	1189.9 ± 1.4	1183.5 ± 1.4	1177 ± 1.4	1170.6 ± 1.4	1.4792 ± 0.0008	1.4789 ± 0.0008	1.4787 ± 0.0008	refractive index ([2]; 301.2 K): 1.4784 ± 0.0008; refractive index ([2]; 302.2 K): 1.4782 ± 0.0008; refractive index ([2]; 303.2 K): 1.4779 ± 0.0008; refractive index ([2]; 304.2 K): 1.4776 ± 0.0008; refractive index ([2]; 305.2 K): 1.4774 ± 0.0008; refractive index ([2]; 306.2 K): 1.4771 ± 0.0008; refractive index ([2]; 307.2 K): 1.4768 ± 0.0008; refractive index ([2]; 308.2 K): 1.4766 ± 0.0008
CCCCn1cc[n+](C)c1.F[B-](F)(F)F [1-butyl-3-methylimidazolium tetrafluoroborate]	1201 ± 0.9	1200.3 ± 0.9	1199.6 ± 0.9	1199 ± 0.9	1198.3 ± 0.9	1197.6 ± 0.9	1196.9 ± 0.9	1196.2 ± 0.9	1195.6 ± 0.9	1194.9 ± 0.9	1194.2 ± 0.9	1190.8 ± 0.9	1187.4 ± 0.9	1184 ± 0.9	1177.2 ± 0.9	1170.4 ± 0.9	1163.6 ± 0.9	1.4218 ± 0.0007	1.4216 ± 0.0007	1.4213 ± 0.0007	refractive index ([2]; 301.2 K): 1.4211 ± 0.0007; refractive index ([2]; 302.2 K): 1.4208 ± 0.0007; refractive index ([2]; 303.2 K): 1.4206 ± 0.0007; refractive index ([2]; 304.2 K): 1.4204 ± 0.0007; refractive index ([2]; 305.2 K): 1.4201 ± 0.0007; refractive index ([2]; 306.2 K): 1.4199 ± 0.0007; refractive index ([2]; 307.2 K): 1.4197 ± 0.0007; refractive index ([2]; 308.2 K): 1.4195 ± 0.0007
CCCCn1cc[n+](C)c1.O=S(=O)([O-])C(F)(F)F [1-butyl-3-methylimidazolium trifluoromethanesulfonate]	1303.8 ± 1.5	1303 ± 1.5	1302.3 ± 1.5	1301.5 ± 1.5	1300.8 ± 1.5	1300 ± 1.5	1299.2 ± 1.5	1298.5 ± 1.5	1297.7 ± 1.5	1297 ± 1.5	1296.2 ± 1.5	1292.4 ± 1.5	1288.6 ± 1.5	1284.7 ± 1.5	1277.1 ± 1.5	1269.5 ± 1.4	1261.9 ± 1.4	1.4368 ± 0.0008	1.4366 ± 0.0008	1.4364 ± 0.0008	refractive index ([2]; 301.2 K): 1.4362 ± 0.0008; refractive index ([2]; 302.2 K): 1.436 ± 0.0008; refractive index ([2]; 303.2 K): 1.4357 ± 0.0008; refractive index ([2]; 304.2 K): 1.4355 ± 0.0008; refractive index ([2]; 305.2 K): 1.4352 ± 0.0008; refractive index ([2]; 306.2 K): 1.435 ± 0.0008; refractive index ([2]; 307.2 K): 1.4348 ± 0.0008; refractive index ([2]; 308.2 K): 1.4346 ± 0.0008
